Assay results published in patent publication US20230382863A1, “MEK INHIBITORS AND USES THEREOF” (Ikena Oncology, Inc., priority 2022, published 2023).
Each block holds one compound with its values, some of them ahead of it.

Columns and labels:
[1] = system: cancer cell lines; test: In vitro MEK inhibitor drug combinations (Cell Titer Glo, Loewe synergy); format: cell-based; settings: combination with I-2; AsPC-1, HPAF, MiaPACA2, NCI-H1373, NCI-H2122, PANC03276; 5 days
Method: Cell viability was determined by Cell Titer Glo assay. […] A normalized Loewe sum of synergy score of >10 was considered synergistic, <10, but >−10 additive, and <−10 antagonistic.

[2] = system: OCI-AML-3 xenograft (NRAS Q61L); test: In vivo efficacy, OCI-AML-3 xenograft model; parameters: species or system mouse; settings: OCI-AML-3 model, 100 mg/kg QD, Day 15
Method: (§1) The antitumor activity of exemplary MEK inhibitor compounds is evaluated in vivo using human cell line derived xenografts (CDX) grown in immunodeficient mice. For these studies, AsPC1 (pancreatic cell line with KRAS G12D mutation), NCI-H2122 (lung cell line with KRAS G12C mutation), and 5637 (bladder cell line with CRAF amplification) models are used. In addition, HCT-116 (colorectal cell line with KRAS G13D mutation), SKM-1 (AML cell line with KRAS K117N mutation), and OCI-AML-3 (AML cell line with NRAS Q61L mutation) models are used. The tumor cell lines (AsPC-1, NCI-H2122, 5637, and HCT-116 cells) are maintained in vitro as monolayer culture in medium at 37° C. in an atmosphere of 5% CO2 in air. The tumor cell lines (SKM-1 and OCI-AML-3 cells) are maintained in vitro as a suspension in medium at 37° C. in an atmosphere of 5% CO2 in air. The tumor cells are routinely sub-cultured before confluence by trypsin-EDTA treatment, not to exceed 4-5 passages. The cells growing in an exponential growth phase are harvested for tumor inoculation. AsPC1, NCI-H2122, and OCI-AML-3 tumors are implanted into Balb/c nude mice. HCT-116 tumors are implanted into Nu/Nu mice. 5637 and SKM-1 tumors are implanted into NOG mice. Each mouse is inoculated subcutaneously on the right flank with tumor cells in a 1:1 mixture with matrigel. Tumors are allowed to grow to approximately 150-200 mm^3. At this time, mice are assigned to groups such that the mean tumor volume is the same for each treatment group. The MEK inhibitor compound treatments are administrated to the tumor-bearing mice via oral gavage. Throughout the study, mouse body weight and tumor volume are recorded. The measurement of tumor size is conducted twice weekly with a caliper and recorded. The tumor volume (mm^3) is estimated using the formula: TV=a×b^2/2, where “a” and “b” are long and short diameters of a tumor, respectively.

[3] = system: SKM-1 xenograft (KRAS K117N); test: In vivo efficacy, SKM-1 xenograft model; parameters: species or system mouse; settings: SKM-1 model, 100 mg/kg QD, Day 22
Method: as §1

[4] = Pharmacokinetics in rat; format: in vivo; settings: plasma, IV, 1 mg/kg
[5] = target: uMEK/BRAF (Homo sapiens (Human), UniProt Q02750); test: MEK-RAF Binding Assay (uMEK/BRAF HTRF)
Chain of uMEK/BRAF (Q02750 whole entry): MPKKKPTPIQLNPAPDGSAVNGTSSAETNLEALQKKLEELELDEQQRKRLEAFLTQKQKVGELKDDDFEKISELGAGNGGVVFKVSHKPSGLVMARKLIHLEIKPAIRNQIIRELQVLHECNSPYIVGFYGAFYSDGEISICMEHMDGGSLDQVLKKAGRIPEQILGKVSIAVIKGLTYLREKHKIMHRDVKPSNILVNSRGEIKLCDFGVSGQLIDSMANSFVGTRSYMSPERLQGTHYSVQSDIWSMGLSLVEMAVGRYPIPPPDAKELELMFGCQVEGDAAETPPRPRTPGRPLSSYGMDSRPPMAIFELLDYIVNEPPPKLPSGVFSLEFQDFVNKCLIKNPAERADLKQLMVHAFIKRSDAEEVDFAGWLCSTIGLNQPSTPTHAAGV

[6] = system: Phosphorylation of ERK1/2 in AsPC1 cells; test: 4 hour pERK1/2 HTRF Assay; format: cell-based; settings: Homo sapiens, ASPC1, read-out: pERK AsPC-1 HTRF (4 hour): Average IC50 (nM); AsPC-1, 4 hour
Method: AsPC1 cells were seeded at 20,000 cells/well overnight in 96-well plates, then treated with a 12-point dose response of compounds (Starting dose of 3000 nM and 3-fold dilution) for 4 hours. AsPC1 cells are a K-Ras mutant cell line. Phosphorylation of ERK1/2 on residues Thr202 and Tyr204 were detected using a Homogenous Time-Resolved Fluorescence (HTRF) assay (Cisbio Cat #64ERKPEG). Briefly, ERK phosphorylation was detected using a sandwich assay format using two phospho-ERK specific antibodies, one labelled with EU^3+-Cryptate (donor) and the second with d2 (acceptor). The Fluorescence Resonance Energy Transfer (FRET) towards the d2 acceptor was detected at a wavelength of 665 nm. ERK1/2 phosphorylation levels were normalized to total ERK1/2 protein levels in each well. IC50 values were determined by fitting a variable slope, four parameters curve to the compound concentration to normalized Phospho-ERK1/2 relationship.

[7] = Cassette pharmacokinetics studies in mice; format: in vivo; settings: male, Balb/c, plasma; Mouse, PO, 5 mg/kg
Method: Pharmacokinetics studies were conducted using cassette dosing protocols, with test compounds administered per mouse. Treatment groups were 3 mice (˜6-8 weeks old, ˜20-30 g Balb/c male mice) per route of administration. Compounds were formulated in 5% DMSO and 95% PEG400 with final concentrations of 0.5 mg/mL for IV and PO dosing. Compounds were dosed at 2 mg/kg for IV dosing and 5 mg/kg for PO dosing. Blood samples were withdrawn at 0.083, 0.25, 0.5, 1.0, 2.0, 4.0, 6.0, 8.0, and 24 hours following IV dosing, and 0.25, 0.5, 1.0, 2.0, 4.0, 6.0, 8.0, and 24 hours following PO dosing. Blood samples were centrifuged at 4,000 g for 5 minutes at 4° C. to obtain plasma samples. Plasma samples were diluted with acetonitrile containing internal standard, vortexed for 30 seconds, then centrifuged at 4,000 rpm for 15 minutes at 4° C. The supernatant was diluted with water, and compound concentration was determined by HPLC/MS/MS compared to calibration standards of 0.5-1,000 ng/mL.
Where route is listed as “IV*”, the compound was dosed IV at 1 mg/kg.

Structure (SMILES): CO[C@H]1C[C@@H]2CC[C@@H](C)[C@@](O)(O2)C(=O)C(=O)N2CCCC[C@H]2C(=O)O[C@H]([C@H](C)C[C@@H]2CC[C@@H](OCCO)[C@H](OC)C2)CC(=O)[C@H](C)/C=C(\C)[C@@H](O)[C@@H](OC)C(=O)[C@H](C)C[C@H](C)/C=C/C=C/C=C/1C [Everolimus]
Loewe Synergy Score > 10 [1]: 5/6 cell lines

weight gain [2]: 8.3%
weight gain [3]: 7.5%
Structure (SMILES): CC1(C)CCC(CN2CCN(c3ccc(C(=O)NS(=O)(=O)c4ccc(NCC5CCOCC5)c([N+](=O)[O-])c4)c(Oc4cnc5[nH]ccc5c4)c3)CC2)=C(c2ccc(Cl)cc2)C1 [venetoclax, reference compound]
percent TGI [2]: 13%
percent TGI [3]: 46.6%

AUC(0-inf) [4]: 1590 ng·h/mL
AUC(0-t) [4]: 1550 ng·h/mL
clearance [4]: 10.5 mL/min/kg
half-life [4]: 1.86 h
Vd ([4]; read-out: Vdss): 1 L/kg
IC50 [5]: < 0.1 µM
IC50 [6]: < 100 nM
AUC(0-inf) [7]: 3800 ng·h/mL
AUC(0-t) [7]: 3770 ng·h/mL
Cmax [7]: 1430 ng/mL
Tmax [7]: 0.6 h
half-life [7]: 2.8 h
Structure (SMILES): Cc1c(Oc2cccc(NS(=O)(=O)NCC(F)(F)F)c2Cl)c(C(=O)NC2CC2)c(Nc2ccc(I)cc2F)n(C)c1=O [Compound I-46]

Structure (SMILES): C[C@H](Nc1ccc2c(c1)OCCn1cc(N3C(=O)OC[C@H]3C(F)F)nc1-2)C(N)=O [Inavolisib]
Loewe Synergy Score > 10 [1]: 5/6 cell lines

Structure (SMILES): Cc1nc(N2CCC3(CC2)CO[C@@H](C)[C@H]3N)c(CO)nc1-c1cccc(Cl)c1Cl [RMC-4550]
Loewe Synergy Score > 10 [1]: 3/6 cell lines
